{"source": "patent US10695337B2", "about": "“Piperidin-4-yl azetidine derivatives as JAK1 inhibitors” (Incyte Corporation, priority 2010, dated 2020)", "target": "human JAK1 (a.a. 837-1142)", "experiment": "In vitro JAK kinase assay (HTRF, phosphorylation of a biotinylated peptide), JAK1", "assay_type": "biochemical", "settings": "measured at 1 mM ATP; JAK2 IC50 / JAK1 IC50", "in_short": "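N-terminally His-tagged catalytic domains, baculovirus-expressed in insect cells and purified, were used as enzyme. Reactions ran 1 hr at room temperature and were stopped with a mix of 45 mM EDTA, 300 nM SA-APC and 6 nM Eu-Py20. The HTRF signal was read after 40 min of antibody binding.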"}
{"smiles": "N#CCC1(n2cc(-c3ncnc4[nH]ccc34)cn2)CN(C2CCN(C(=O)Nc3ccc(OC(F)(F)F)cc3)CC2)C1", "note": "[Example 182, 4-{3-(cyanomethyl)-3-[4-(7H-pyrrolo[2,3-d]pyrimidin-4-yl)-1H-pyrazol-1-yl]azetidin-1-yl}-N-[4-(trifluoromethoxy)phenyl]piperidine-1-carboxamide]", "values": [{"measurement": "IC50 Ratio JAK2/JAK1", "value": 3.7}]}
{"smiles": "N#CCC1(n2cc(-c3c(F)cnc4[nH]ccc34)cn2)CN(C2CCN(C(=O)c3ccc(F)cn3)CC2)C1", "note": "[Example 319]", "values": [{"measurement": "IC50 Ratio JAK2/JAK1", "value": 4.0}]}
{"smiles": "N#CCC1(n2cc(-c3ncnc4[nH]ccc34)cn2)CN(C2CCN(C(=O)c3ccccc3)CC2)C1", "note": "[Example 9, {1-(1-benzoylpiperidin-4-yl)-3-[4-(7H-pyrrolo[2,3-d]pyrimidin-4-yl)-1H-pyrazol-1-yl]azetidin-3-yl}acetonitrile]", "values": [{"measurement": "IC50 Ratio JAK2/JAK1", "value": 3.2}]}
{"smiles": "N#CCC1(n2cc(-c3ncnc4[nH]ccc34)cn2)CN(C2CCN(C(=O)c3ccc(-c4cccnc4)c(F)c3)CC2)C1", "note": "[Example 123, {1-[1-(3-fluoro-4-pyridin-3-ylbenzoyl)piperidin-4-yl]-3-[4-(7H-pyrrolo[2,3-d]pyrimidin-4-yl)-1H-pyrazol-1-yl]azetidin-3-yl} acetonitrile]", "values": [{"measurement": "IC50 Ratio JAK2/JAK1", "value": 3.8}]}
{"smiles": "N#CCC1(n2cc(-c3ccnc4[nH]ccc34)cn2)CN(C2CCN(C(=O)Nc3ccccc3Cl)CC2)C1", "note": "[Example 310, N-(2-chlorophenyl)-4-{3-(cyanomethyl)-3-[4-(1H-pyrrolo[2,3-b]pyridin-4-yl)-1H-pyrazol-1-yl]azetidin-1-yl}piperidine-1-carboxamide]", "values": [{"measurement": "IC50 Ratio JAK2/JAK1", "value": 9.0}]}
{"smiles": "N#CCC1(n2cc(-c3ncnc4[nH]ccc34)cn2)CN(C2CCN(C(=O)c3sc(C(F)(F)F)cc3O)CC2)C1", "note": "[Example 71, {1-{1-[3-hydroxy-5-(trifluoromethyl)-2-thienylcarbonyl]piperidin-4-yl}-3-[4-(7H-pyrrolo[2,3-d]pyrimidin-4-yl)-1H-pyrazol-1-yl]azetidin-3-yl}acetonitrile]", "values": [{"measurement": "IC50 Ratio JAK2/JAK1", "value": 4.4}]}
{"smiles": "N#CCC1(n2cc(-c3ncnc4[nH]ccc34)cn2)CN(C2CCN(C(=O)Nc3cc(F)ccc3F)CC2)C1", "note": "[Example 174, 4-{3-(cyanomethyl)-3-[4-(7H-pyrrolo[2,3-d]pyrimidin-4-yl)-1H-pyrazol-1-yl]azetidin-1-yl}-N-(2,5-difluorophenyl) piperidine-1-carboxamide]", "values": [{"measurement": "IC50 Ratio JAK2/JAK1", "value": 7.1}]}
{"smiles": "Cc1csc(NC(=O)N2CCC(N3CC(CC#N)(n4cc(-c5ncnc6[nH]ccc56)cn4)C3)CC2)n1", "note": "[Example 191, 4-{3-(cyanomethyl)-3-[4-(7H-pyrrolo[2,3-d]pyrimidin-4-yl)-1H-pyrazol-1-yl]azetidin-1-yl}-N-(4-methyl-1,3-thiazol-2-yl)piperidine-1-carboxamide]", "values": [{"measurement": "IC50 Ratio JAK2/JAK1", "value": 1.4}]}
{"smiles": "CC1CC(N2CC(CC#N)(n3cc(-c4ncnc5[nH]ccc45)cn3)C2)CCN1C(=O)C1CCC(F)(F)CC1", "note": "(stereo not shown) [Example 151, {1-{1-[(4,4-difluorocyclohexyl)carbonyl]-2-methylpiperidin-4-yl}-3-[4-(7H-pyrrolo[2,3-d]pyrimidin-4-yl)-1H-pyrazol-1-yl]azetidin-3-yl}acetonitrile]", "values": [{"measurement": "IC50 Ratio JAK2/JAK1", "value": 5.8}]}
{"smiles": "N#CCC1(n2cc(-c3ccnc4[nH]ccc34)cn2)CN(C2CCN(C(=O)c3ccnc(C(F)(F)F)n3)CC2)C1", "note": "[Example 299, [3-[4-(1H-pyrrolo[2,3-b]pyridin-4-yl)-1H-pyrazol-1-yl]-1-(1-{[2-(trifluoromethyl)pyrimidin-4-yl]carbonyl}piperidin-4-yl)azetidin-3-yl]acetonitrile]", "values": [{"measurement": "IC50 Ratio JAK2/JAK1", "value": 6.6}]}
{"smiles": "N#CCC1(n2cc(-c3ncnc4[nH]ccc34)cn2)CN(C2CCN(C(=O)Nc3cccc(C(F)(F)F)c3F)CC2)C1", "note": "[Example 170, 4-{3-(cyanomethyl)-3-[4-(7H-pyrrolo[2,3-d]pyrimidin-4-yl)-1H-pyrazol-1-yl]azetidin-1-yl}-N-[2-fluoro-3-(trifluoromethyl)phenyl]piperidine-1-carboxamide]", "values": [{"measurement": "IC50 Ratio JAK2/JAK1", "value": 6.9}]}
{"smiles": "N#CCC1(n2cc(-c3ncnc4[nH]ccc34)cn2)CN(C2CCN(Cc3cc(C(F)(F)F)ccc3Cl)CC2)C1", "note": "[Example 211, {1-{1-[2-chloro-5-(trifluoromethyl)benzyl]piperidin-4-yl}-3-[4-(7H-pyrrolo[2,3-d]pyrimidin-4-yl)-1H-pyrazol-1-yl]azetidin-3-yl}acetonitrile]", "values": [{"measurement": "IC50 Ratio JAK2/JAK1", "value": 5.0}]}
{"smiles": "COc1cc(C(=O)N2CCC(N3CC(CC#N)(n4cc(-c5ncnc6[nH]ccc56)cn4)C3)CC2)ccc1F", "note": "[Example 26, {1-[1-(4-fluoro-3-methoxybenzoyl)piperidin-4-yl]-3-[4-(7H-pyrrolo[2,3-d]pyrimidin-4-yl)-1H-pyrazol-1-yl]azetidin-3-yl}acetonitrile]", "values": [{"measurement": "IC50 Ratio JAK2/JAK1", "value": 3.3}]}
{"smiles": "COc1cccc(C(=O)N2CCC(N3CC(CC#N)(n4cc(-c5ncnc6[nH]ccc56)cn4)C3)CC2)c1", "note": "[Example 31, {1-[1-(3-methoxybenzoyl)piperidin-4-yl]-3-[4-(7H-pyrrolo[2,3-d]pyrimidin-4-yl)-1H-pyrazol-1-yl]azetidin-3-yl}acetonitrile]", "values": [{"measurement": "IC50 Ratio JAK2/JAK1", "value": 1.9}]}
{"smiles": "N#CCC1(n2cc(-c3ncnc4[nH]ccc34)cn2)CN(C2CCN(C(=O)c3ccc(F)c(F)c3)CC2)C1", "note": "[Example 35, {1-[1-(3,4-difluorobenzoyl)piperidin-4-yl]-3-[4-(7H-pyrrolo[2,3-d]pyrimidin-4-yl)-1H-pyrazol-1-yl]azetidin-3-yl}acetonitrile]", "values": [{"measurement": "IC50 Ratio JAK2/JAK1", "value": 6.9}]}
{"smiles": "N#CCC1(n2cc(-c3ncnc4[nH]ccc34)cn2)CN(C2CCN(C(=O)Nc3cccc(Cl)c3)CC2)C1", "note": "[Example 183, N-(3-chlorophenyl)-4-{3-(cyanomethyl)-3-[4-(7H-pyrrolo[2,3-d]pyrimidin-4-yl)-1H-pyrazol-1-yl]azetidin-1-yl}piperidine-1-carboxamide]", "values": [{"measurement": "IC50 Ratio JAK2/JAK1", "value": 3.8}]}
{"smiles": "CN(C)c1c(F)c(F)c(C(=O)N2CCC(N3CC(CC#N)(n4cc(-c5ncnc6[nH]ccc56)cn4)C3)CC2)c(F)c1F", "note": "[Example 60, {1-{1-[4-(dimethylamino)-2,3,5,6-tetrafluorobenzoyl]piperidin-4-yl}-3-[4-(7H-pyrrolo[2,3-d]pyrimidin-4-yl)-1H-pyrazol-1-yl]azetidin-3-yl}acetonitrile]", "values": [{"measurement": "IC50 Ratio JAK2/JAK1", "value": 1.8}]}
{"smiles": "N#CCC1(n2ccc(-c3ncnc4[nH]ccc34)c2)CN(C2CCN(C(=O)c3ccc(O)c(C(F)(F)F)c3)CC2)C1", "note": "[Example 282, {1-{1-[4-hydroxy-3-(trifluoromethyl)benzoyl]piperidin-4-yl}-3-[3-(7H-pyrrolo[2,3-d]pyrimidin-4-yl)-1H-pyrrol-1-yl]azetidin-3-yl}acetonitrile]", "values": [{"measurement": "IC50 Ratio JAK2/JAK1", "value": 3.4}]}
{"smiles": "N#CCC1(n2cc(-c3ncnc4[nH]ccc34)cn2)CN(C2CCN(C(=O)c3ccsc3Br)CC2)C1", "note": "[Example 75, {1-{1-[(2-bromo-3-thienyl)carbonyl]piperidin-4-yl}-3-[4-(7H-pyrrolo[2,3-d]pyrimidin-4-yl)-1H-pyrazol-1-yl]azetidin-3-yl}acetonitrile]", "values": [{"measurement": "IC50 Ratio JAK2/JAK1", "value": 3.4}]}
